This passage reports IC50 results from patent publication US12331046B2, “CTPS1 inhibitors and uses thereof” (Nimbus Clotho, Inc., priority 2020, dated 2025).

This test concerns the target human CTPS1 (Homo sapiens (Human), UniProt P17812). Description: hCTPS1 biochemical assay (ADP-Glo). The note with it: hCTPS1 25 nM, ATP 120 uM, UTP 160 uM, GTP 60 uM, L-Glutamine 100 uM, 25 degrees C.

For orientation: IC50 means the concentration that gives 50% inhibition.

human CTPS1, sequence (P17812 whole entry): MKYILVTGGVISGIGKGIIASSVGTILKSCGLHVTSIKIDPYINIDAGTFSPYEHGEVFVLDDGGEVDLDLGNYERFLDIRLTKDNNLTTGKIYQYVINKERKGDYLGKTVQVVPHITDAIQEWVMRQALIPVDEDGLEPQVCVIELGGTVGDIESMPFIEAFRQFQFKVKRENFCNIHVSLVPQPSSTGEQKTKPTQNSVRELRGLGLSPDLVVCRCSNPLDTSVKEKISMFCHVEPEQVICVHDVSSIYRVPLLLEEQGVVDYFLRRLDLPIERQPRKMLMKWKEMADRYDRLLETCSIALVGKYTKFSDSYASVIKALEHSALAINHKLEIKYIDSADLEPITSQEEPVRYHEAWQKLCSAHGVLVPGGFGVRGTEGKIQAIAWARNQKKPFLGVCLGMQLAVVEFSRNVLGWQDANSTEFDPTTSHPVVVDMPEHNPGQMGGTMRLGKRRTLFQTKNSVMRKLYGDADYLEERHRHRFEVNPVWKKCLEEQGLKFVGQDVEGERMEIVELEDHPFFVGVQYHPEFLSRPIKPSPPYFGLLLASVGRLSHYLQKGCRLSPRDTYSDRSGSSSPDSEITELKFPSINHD

In the case of `CCC[C@@H]1CCN1c1ncc(C(=O)NCc2cc(NS(=O)(=O)C3CC3)ccn2)nc1C` (single isomer, unassigned) [I-58], the half-maximal inhibitory concentration (IC50) was 100 to 1000 nM.
`CCOc1cncc(-c2cnc(C(=O)N[C@@H](c3cc(NS(=O)(=O)C4CC4)ccn3)[C@H]3CCOC3)s2)n1` (single isomer, unassigned) [I-92] gave an IC50 of less than 100 nM.
The same measure for `CCOc1cncc(-c2cnc(C(=O)N[C@@H](c3cc(NS(=O)(=O)C4CC4)ccn3)[C@@H]3CCOC3)s2)n1` (single isomer, unassigned) [I-93]: less than 100 nM.
Then `CCOc1cncc(-c2cnc(C(=O)N[C@H](c3cc(NS(=O)(=O)C4CC4)ccn3)[C@@H]3CCOC3)s2)n1` (single isomer, unassigned) [I-94], with less than 100 nM; and `CCOc1cncc(-c2cnc(C(=O)N[C@H](c3cc(NS(=O)(=O)C4CC4)ccn3)[C@H]3CCOC3)s2)n1` (single isomer, unassigned) [I-95], with less than 100 nM.
The compound `CCOc1cncc(-c2cnc(C(=O)N[C@H](CN3C[C@@H]4C[C@H]3CO4)c3cc(NS(=O)(=O)C4CC4)ccn3)s2)n1` (single isomer, unassigned) [I-101] yielded an IC50 of less than 100 nM.
Then `CCOc1cncc(-c2cnc(C(=O)N[C@@H](CN3C[C@@H]4C[C@H]3CO4)c3cc(NS(=O)(=O)C4CC4)ccn3)s2)n1` (single isomer, unassigned) [I-102], with less than 100 nM; and `CCOc1cncc(-c2cnc(C(=O)N[C@H](CN3CCC(N(C)C)CC3)c3cc(NS(=O)(=O)C4CC4)ccn3)s2)n1` (single isomer, unassigned) [I-103], with less than 100 nM; and `CCOc1cncc(-c2cnc(C(=O)N[C@@H](CN3CCC(N(C)C)CC3)c3cc(NS(=O)(=O)C4CC4)ccn3)s2)n1` (single isomer, unassigned) [I-104], with less than 100 nM.
Then `CCOc1cncc(-c2cnc(C(=O)N[C@H](c3cc(NS(=O)(=O)C4CC4)ccn3)[C@H]3C[C@@H](N(C)C)C3)s2)n1` (single isomer, unassigned) [I-105], with less than 100 nM; and `CCOc1cncc(-c2cnc(C(=O)N[C@H](c3cc(NS(=O)(=O)C4CC4)ccn3)[C@H]3C[C@H](N(C)C)C3)s2)n1` (single isomer, unassigned) [I-106], with less than 100 nM.
As to `CCOc1cncc(-c2cnc(C(=O)N[C@@H](c3cc(NS(=O)(=O)C4CC4)ccn3)[C@H]3C[C@H](N(C)C)C3)s2)n1` (single isomer, unassigned) [I-107, N-((4-(cyclopropanesulfonamido)pyridin-2-yl)((1r, 3r)-3-(dimethylamino)cyclobutyl)methyl)-5-(6-ethoxypyrazin-2-yl)thiazole-2-carboxamide], the IC50 was less than 100 nM.
In turn, `CCOc1cncc(-c2cnc(C(=O)N[C@@H](c3cc(NS(=O)(=O)C4CC4)ccn3)[C@H]3C[C@@H](N(C)C)C3)s2)n1` (single isomer, unassigned) [I-108] returned an IC50 of less than 100 nM.
The same measure for `CCOc1cncc(-c2cnc(C(=O)N[C@@H](CN3[C@H](C)COC[C@@H]3C)c3cc(NS(=O)(=O)C4CC4)ccn3)s2)n1` (single isomer, unassigned) [I-109]: less than 100 nM.
The same measure for `CCOc1cncc(-c2cnc(C(=O)N[C@H](CN3[C@H](C)COC[C@@H]3C)c3cc(NS(=O)(=O)C4CC4)ccn3)s2)n1` (single isomer, unassigned) [I-110]: less than 100 nM.
For `CCOc1cncc(-c2cnc(C(=O)N[C@@H](CN3CCOCC3(C)C)c3cc(NS(=O)(=O)C4CC4)ccn3)s2)n1` (single isomer, unassigned) [I-116], the IC50 is less than 100 nM.
The same measure for `CCOc1cncc(-c2cnc(C(=O)N[C@H](CN3CCOCC3(C)C)c3cc(NS(=O)(=O)C4CC4)ccn3)s2)n1` (single isomer, unassigned) [I-117]: less than 100 nM; for `CCOc1cncc(-c2cnc(C(=O)N[C@@H](CN3CCN(C(C)C)CC3)c3cc(NS(=O)(=O)C4CC4)ccn3)s2)n1` (single isomer, unassigned) [I-118]: less than 100 nM.
The same measure for `CCOc1cncc(-c2cnc(C(=O)N[C@@H](CN3CCN(C4CC4)CC3)c3cc(NS(=O)(=O)C4CC4)ccn3)s2)n1` (single isomer, unassigned) [I-119]: less than 100 nM; for `CCOc1cncc(-c2cnc(C(=O)N[C@H](CN3CCN(C4CC4)CC3)c3cc(NS(=O)(=O)C4CC4)ccn3)s2)n1` (single isomer, unassigned) [I-120]: less than 100 nM.
The same measure for `CCOc1cncc(-c2cnc(C(=O)N[C@H](CN3CCN(C(C)C)CC3)c3cc(NS(=O)(=O)C4CC4)ccn3)s2)n1` (single isomer, unassigned) [I-121]: less than 100 nM.
In turn, `CCOc1cncc(-c2cnc(C(=O)N[C@H](CCN(C)C)c3c(F)ccc(NS(=O)(=O)C4CC4)c3F)s2)n1` (single isomer, unassigned) [I-124] registered an IC50 of no less than 1000 nM.
Then `CCOc1cncc(-c2cnc(C(=O)N[C@@H](CCN(C)C)c3c(F)ccc(NS(=O)(=O)C4CC4)c3F)s2)n1` (single isomer, unassigned) [I-125], with no less than 1000 nM; and `CCOc1cncc(-c2cnc(C(=O)N[C@@H](C[C@@H]3CCCCN3C)c3cc(NS(=O)(=O)C4CC4)ccn3)s2)n1` (single isomer, unassigned) [I-134], with 100 to 1000 nM; and `CCOc1cncc(-c2cnc(C(=O)N[C@H](C[C@@H]3CCCCN3C)c3cc(NS(=O)(=O)C4CC4)ccn3)s2)n1` (single isomer, unassigned) [I-136], with less than 100 nM.
In the case of `CCOc1cncc(-c2cnc(C(=O)N[C@@H](C[C@H]3CCCCN3)c3cc(NS(=O)(=O)C4CC4)ccn3)s2)n1` (single isomer, unassigned) [I-138], the IC50 is less than 100 nM.
Turning to `CCOc1cncc(-c2cnc(C(=O)N[C@@H](C[C@@H]3CCCCN3)c3cc(NS(=O)(=O)C4CC4)ccn3)s2)n1` (single isomer, unassigned) [I-139], the IC50 is less than 100 nM.
The same measure for `CCOc1cncc(-c2cnc(C(=O)N[C@H](C[C@@H]3CCCCN3)c3cc(NS(=O)(=O)C4CC4)ccn3)s2)n1` (single isomer, unassigned) [I-141]: less than 100 nM; for `CCOc1cncc(-c2cnc(C(=O)N[C@H](CCN(C)C)c3cccc(NS(=O)(=O)C4CC4)c3)s2)n1` (single isomer, unassigned) [I-143]: no less than 1000 nM; for `CCOc1cncc(-c2cnc(C(=O)N[C@@H](CCN(C)C)c3cccc(NS(=O)(=O)C4CC4)c3)s2)n1` (single isomer, unassigned) [I-144]: less than 100 nM.
Then `CCOc1cncc(-c2cnc(C(=O)N[C@@H](CN3CCN(C)CC3)c3cc(NS(=O)(=O)C4CC4)ccn3)s2)n1` (single isomer, unassigned) [I-191], with less than 100 nM.
Then `CCOc1cncc(-c2cnc(C(=O)N[C@H](CN3CCN(C)CC3)c3cc(NS(=O)(=O)C4CC4)ccn3)s2)n1` (single isomer, unassigned) [I-192], with less than 100 nM; and `CCOc1cncc(-c2cnc(C(=O)N[C@@H](CN3CC(F)C3)c3cc(NS(=O)(=O)C4CC4)ccn3)s2)n1` (single isomer, unassigned) [I-203], with less than 100 nM.
`CCOc1cncc(-c2cnc(C(=O)N[C@H](CN3CC(F)C3)c3cc(NS(=O)(=O)C4CC4)ccn3)s2)n1` (single isomer, unassigned) [I-204]: the IC50 is less than 100 nM.
The same measure for `CCOc1cncc(-c2cnc(C(=O)N[C@H](CN3CCCCC3)c3cc(NS(=O)(=O)C4CC4)ccn3)s2)n1` (single isomer, unassigned) [I-213]: less than 100 nM.
